The text below walks through data of US20150259300A1, “4-(ORTHO)-FLUOROPHENYL-5-FLUOROPYRIMIDIN-2-YL AMINES CONTAINING A SULFONE GROUP” (BAYER PHARMA AKTIENGESELLSCHAFT, priority 2012, published 2015).

One test has as its target T1, CDK9/CycT1 (Homo sapiens, UniProt P50750).
T1 construct: Recombinant full-length His-tagged human CDK9 and CycT1; His; purchased Invitrogen PV4131; host or cells: insect cells
Kind of test: CDK9/CycT1 high ATP kinase assay (TR-FRET, Method 1b). The note with it: 2 mM ATP. Type of test: biochemical. Here is the method:
1b. CDK9/CyeT1 High ATP Kinase Assay
CDK9/CycT1-inhibitory activity of compounds of the present invention at a high ATP concentration after preincubation of enzyme and test compounds was quantified employing the CDK9/CycT1 TR-FRET assay as described in the following paragraphs.
Recombinant full-length His-tagged human CDK9 and CycT1, expressed in insect cells and purified by Ni-NTA affinity chromatography, were purchase from Invitrogen (Cat. No PV4131). As substrate for the kinase reaction biotinylated peptide biotin-Ttds-YISPLKSPYKISEG (C-terminus in amid form) was used which can be purchased e.g. form the company JERINI peptide technologies (Berlin, Germany).
(§1) For the assay 50 nl of a 100 fold concentrated solution of the test compound in DMSO was pipetted into a black low volume 384 well microtiter plate (Greiner Bio-One, Frickenhausen, Germany), 2 μl of a solution of CDK9/CycT1 in aqueous assay buffer [50 mM Tris/HCl pH 8.0, 10 mM MgCl2, 1.0 mM dithiothreitol, 0.1 mM sodium ortho-vanadate, 0.01% (v/v) Nonidet-P40 (Sigma)] were added and the mixture was incubated for […] at 22° C. to allow pre-binding of the test compounds to the enzyme before the start of the kinase reaction. Then the kinase reaction was started by the addition of 3 μl of a solution of adenosine-tri-phosphate (ATP, 3.3 mM=>final conc. in the 5 μl assay volume is 2 mM) and substrate (1.67 μM=>final conc. in the 5 μl assay volume is 1 μM) in assay buffer and the resulting mixture was incubated for a reaction time of […] at 22° C. The concentration of CDK9/CycT1 was adjusted depending of the activity of the enzyme lot and was chosen appropriate to have the assay in the linear range, typical concentrations were in the range of 0.5 ng/ml. The reaction was stopped by the addition of 5 μl of a solution of TR-FRET detection reagents (0.2 μl streptavidine-XL665 [Cisbio Bioassays, Codolet, France] and 1 nM anti-RB(pSer807/pSer811)-antibody from BD Pharmingen [#558389] and 1.2 nM LANCE EU-W1024 labeled anti-mouse IgG antibody [Perkin-Elmer, product no. AD0077]) in an aqueous EDTA-solution (100 mM EDTA, 0.2% (w/v) bovine serum albumin in 100 mM HEPES/NaOH pH 7.0).
(§2) The resulting mixture was incubated 1 h at 22° C. to allow the formation of complex between the phosphorylated biotinylated peptide and the detection reagents. Subsequently the amount of phosphorylated substrate was evaluated by measurement of the resonance energy transfer from the Eu-chelate to the streptavidine-XL. Therefore, the fluorescence emissions at 620 nm and 665 nm after excitation at 350 nm was measured in a HTRF reader, e.g. a Rubystar (BMG Labtechnologies, Offenburg, Germany) or a Viewlux (Perkin-Elmer). The ratio of the emissions at 665 nm and at […] was taken as the measure for the amount of phosphorylated substrate. The data were normalised (enzyme reaction without inhibitor=0% inhibition, all other assay components but no enzyme=100% inhibition).
(In general: Time-resolved FRET reads energy transfer from a long-lived donor to a nearby acceptor.)

In a further test the target is T2, CDK2/CycE (Homo sapiens, UniProt P24941).
T2 construct: GST; purchased ProQinase GmbH (Freiburg, Germany); host or cells: insect cells (Sf9)
The test is described as follows: CDK2/CycE kinase assay (TR-FRET, Method 2). The note with it: Method 2, 10 μM ATP. Type of test: biochemical.
From the text: 2. CDK2/CycE Kinase Assay:
CDK2/CycE -inhibitory activity of compounds of the present invention was quantified employing the CDK2/CycE TR-FRET assay as described in the following paragraphs:
Recombinant fusion proteins of GST and human CDK2 and of GST and human CycE, expressed in insect cells (Sf9) and purified by Glutathion-Sepharose affinity chromatography, were purchased from ProQinase GmbH (Freiburg, Germany). As substrate for the kinase reaction biotinylated peptide biotin-Ttds-YISPLKSPYKISEG (C-terminus in amid form) was used which can be purchased e.g. form the company JERINI Peptide Technologies (Berlin, Germany).
as §1, with “of CDK2/CycE” for “of CDK9/CycT1”, “(ATP, 16.7” for “(ATP, 3.3 mM=>final conc. in the 5 μl assay volume is 2 mM) and substrate (1.67”, “is 10 μM) and substrate (1.25 μM=>final conc. in the 5 μl assay volume is 0.75” for “is 1”, “of 130” for “of 0.5”, “(0.2 μM” for “(0.2 μl”
as §2, with “TR-FRET” for “HTRF”

T1 sequence (P50750 whole entry): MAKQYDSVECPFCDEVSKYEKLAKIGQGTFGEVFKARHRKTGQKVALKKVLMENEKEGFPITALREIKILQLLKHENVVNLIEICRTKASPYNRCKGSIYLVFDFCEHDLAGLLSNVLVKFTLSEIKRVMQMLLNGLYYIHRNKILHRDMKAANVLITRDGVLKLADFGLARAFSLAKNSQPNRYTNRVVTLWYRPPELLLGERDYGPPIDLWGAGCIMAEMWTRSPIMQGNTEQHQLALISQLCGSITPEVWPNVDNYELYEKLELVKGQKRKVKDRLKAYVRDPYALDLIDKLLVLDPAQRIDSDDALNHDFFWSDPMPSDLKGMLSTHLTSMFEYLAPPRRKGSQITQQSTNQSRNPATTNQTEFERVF
T1 sequence (O60563 whole entry partner): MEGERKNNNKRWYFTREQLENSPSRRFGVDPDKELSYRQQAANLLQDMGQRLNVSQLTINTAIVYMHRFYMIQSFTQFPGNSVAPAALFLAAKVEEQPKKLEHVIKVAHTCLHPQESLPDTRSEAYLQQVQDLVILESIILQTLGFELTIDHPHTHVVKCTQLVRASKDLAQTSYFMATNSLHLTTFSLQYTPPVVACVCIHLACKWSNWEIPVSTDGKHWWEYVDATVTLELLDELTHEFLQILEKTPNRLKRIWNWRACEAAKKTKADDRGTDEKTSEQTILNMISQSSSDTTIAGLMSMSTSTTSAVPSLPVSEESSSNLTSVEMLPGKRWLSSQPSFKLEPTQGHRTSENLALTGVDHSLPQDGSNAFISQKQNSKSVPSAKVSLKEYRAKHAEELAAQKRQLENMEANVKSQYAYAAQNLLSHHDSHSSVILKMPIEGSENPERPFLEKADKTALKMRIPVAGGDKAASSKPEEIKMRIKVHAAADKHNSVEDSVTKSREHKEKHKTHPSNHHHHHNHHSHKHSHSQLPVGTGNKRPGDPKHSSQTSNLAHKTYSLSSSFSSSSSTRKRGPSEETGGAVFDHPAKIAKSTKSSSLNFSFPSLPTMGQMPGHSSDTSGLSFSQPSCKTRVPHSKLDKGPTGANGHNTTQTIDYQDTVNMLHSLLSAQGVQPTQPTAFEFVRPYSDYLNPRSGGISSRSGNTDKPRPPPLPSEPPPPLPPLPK

One may read the IC50 as the concentration needed to halve the response being measured. High values mean weaker potency in that assay, low ones greater potency in that assay. Turning to `CS(=O)(=O)Cc1cccc(Nc2ncc(F)c(-c3ccc(F)cc3F)n2)c1` [Example 5, 4-(2,4-Difluorophenyl)-5-fluoro-N-{3-[(methylsulfonyl)methyl]phenyl}pyrimidin-2-amine], the IC50 at CDK9/CycT1 came to 0.858 µM; against CDK2/CycE it was 0.47 µM.
The like results for `CCCS(=O)(=O)Cc1cccc(Nc2ncc(F)c(-c3ccc(F)cc3F)n2)c1` [Example 8, 4-(2,4-difluorophenyl)-5-fluoro-N-{3-[(propylsulfonyl)methyl]phenyl}pyrimidin-2-amine] were, in that order, 0.904 µM and 0.57 µM.
The like results for `CS(=O)(=O)Cc1cc(F)cc(Nc2ncc(F)c(-c3ccc(F)cc3F)n2)c1` [Example 10, 4-(2,4-Difluorophenyl)-5-fluoro-N-{3-fluoro-5-[(methylsulfonyl)methyl]phenyl}pyrimidin-2-amine] were, in that order, 2.28 µM and 5.8 µM.
The like results for `COCCS(=O)(=O)Cc1cccc(Nc2ncc(F)c(-c3ccc(F)cc3F)n2)c1` [Example 4, 4-(2,4-Difluorophenyl)-5-fluoro-N-(3-{[(2-methoxyethyl)sulfonyl]methyl}phenyl)pyrimidin-2-amine] were, in that order, 2.26 µM and 2.6 µM.
Regarding `CC(C)(C)S(=O)(=O)Cc1cccc(Nc2ncc(F)c(-c3ccc(F)cc3F)n2)c1` [Example 3, N-{3-[(tert-Butylsulfonyl)methyl]phenyl}-4-(2,4-difluorophenyl)-5-fluoropyrimidin-2-amine], the results for the IC50 against CDK9/CycT1 and on CDK2/CycE were 14.5 µM and 1 µM, respectively.
The like results for `CC(C)S(=O)(=O)Cc1cccc(Nc2ncc(F)c(-c3ccc(F)cc3F)n2)c1` [Example 2, 4-(2,4-Difluorophenyl)-5-fluoro-N-{3-[(propan-2-ylsulfonyl)methyl]phenyl}pyrimidin-2-amine] were, in that order, 2.26 µM and 1.2 µM.
The like results for `CS(=O)(=O)Cc1cc(Nc2ncc(F)c(-c3ccc(F)cc3F)n2)cc(S(F)(F)(F)(F)F)c1` [Example 6, 4-(2,4-Difluorophenyl)-5-fluoro-N-{3-[(methylsulfonyl)methyl]-5-(pentafluoro-λ^6-sulfanyl)phenyl}pyrimidin-2-amine] were, in that order, 0.099 µM and 1.76 µM.
The like results for `CS(=O)(=O)Cc1cc(F)cc(Nc2ncc(F)c(-c3ccc(F)c(F)c3F)n2)c1` [Example 12, 5-fluoro-N-{3-fluoro-5-[(methylsulfonyl)methyl]phenyl}-4-(2,3,4-trifluorophenyl)pyrimidin-2-amine] were, in that order, 0.271 µM and 0.35 µM.
For the molecule `O=S(=O)(Cc1cccc(Nc2ncc(F)c(-c3ccc(F)cc3F)n2)c1)C1CC1` [Example 9, N-{3-[(Cyclopropylsulfonyl)methyl]phenyl}-4-(2,4-difluorophenyl)-5-fluoropyrimidin-2-amine], the half-maximal inhibitory concentration (IC50) at CDK9/CycT1 amounted to 0.33 µM; against CDK2/CycE, 0.41 µM.
The like results for `CS(=O)(=O)Cc1cc(F)cc(Nc2ncc(F)c(-c3cc(F)c(F)cc3F)n2)c1` [Example 11, 5-Fluoro-N-{3-fluoro-5-[(methylsulfonyl)methyl]phenyl}-4-(2,4,5-trifluorophenyl)pyrimidin-2-amine] were, in that order, more than 20 µM and more than 20 µM.
The like results for `CCCS(=O)(=O)Cc1cc(F)cc(Nc2ncc(F)c(-c3ccc(F)cc3F)n2)c1` [Example 13, 4-(2,4-Difluorophenyl)-5-fluoro-N-{3-fluoro-5-[(propylsulfonyl)methyl]phenyl}pyrimidin-2-amine] were, in that order, 2.28 µM and 0.58 µM.
